# Results: patent US20260108547A1, “LEVERAGING L-FUCOSE-MEDIATED SIGNALING TO INDUCE MONOCYTE-DERIVED DENDRITIC CELL POLARIZATION” (H. LEE MOFFITT CANCER CENTER AND RESEARCH INSTITUTE, INC., priority 2022, published 2026)
# Assays:
# [1] = Mouse models of tumor growth and metastasis, dietary L-fucose supplementation; type: in vivo
# SW1 tumors = assay: DC clustering by CD11c in SW1 tumors from mice treated +/- L-fucose; conditions: mouse, in vivo
# PD-L1 = assay: Flow cytometric assessment of cell surface PD-L1, human melanoma cells (WM793); type: cell-based
# Description: Indicated cells were treated for 72 h with DMSO, 250 μM fucosyltransferase inhibitor (FUTi) (Millipore Sigma (St. Louis, MO)), or 250 μM of L-fucose (Biosynth (Oak Terrace, IL)). After 72 h, cells were stained with 0.1 μM PKH26 (Millipore Sigma (St. Louis, MO)) prior to fixation in 4% formaldehyde solution. The cells were stained with anti-HLA-DRB1 and fluorescein AAL, or anti-human or anti-mouse PD-L1 overnight. The following day the cells were washed 3 times prior to adding AlexaFluor 594 donkey anti-rabbit. Cells were washed 3 times and then subject to flow cytometric analyses using a FACSCalibur (BD Biosciences (San Jose, CA)). Samples were analyzed using FlowJo analysis software (BD Biosciences (San Jose, CA)). Median values of DRB1 and AAL were normalized to PKH26 values and statistical analysis was performed using GraphPad Prism.
# moDCs = assay: moDC cytokine production, qPCR and immunoblot of signaling pathways; type: cell-based
# From the text: To determine if the changes in DC polarization and CD209 expression were associated with differential signaling changes in moDCs we analyzed known suppressive and stimulatory pathways by (FIG. 25A) cytokine production and (FIG. 25B) qPCR. […] (C) To elucidate the mechanism by which L-fucose was repressing immunosuppression in moDCs we preformed immunoblot analysis of several key signaling pathways in moDC activation of cells treated +/−L-fucose and +/−maturation via LPS. Additionally, we identified transcription factors that may play a role in altering the signaling and cytokine profiles of moDC to further validate the changes in immunomodulatory activity we observe.
structure (smiles),measurement,setting,value
C[C@H](O)[C@@H](O)[C@@H](O)[C@H](O)C=O [L-fucose],blocks tumor growth and metastasis,[1],> 50%
same,DC clustering by CD11c in SW1 tumors,SW1 tumors,increased DC clustering
same,cell surface levels of PD-L1,PD-L1,does not alter
same,immunosuppressive signature of DCs,"moDCs; cytokine production, qPCR",decreased immunosuppressive signature
same,iNOS and p65 activation in moDC,"moDCs; immunoblot, +/- LPS maturation",decreased iNOS and p65 activation
